Results from US20260102346A1, “LIPID COMPOSITION” (priority 2022, published 2026).

Legend:
[1] = system: luciferase mRNA expression in livers and injection sites (muscles); assay: In vivo luciferase expression liver/muscle of LNP and LPP with different cationic lipids (Example 10); parameters: species or system Balb/c mice; details: 10 μg luciferase mRNA i.m., 6 hours after injection; for Liver/muscle (%, LNP): LNP preparation of the cationic lipid; for Liver/muscle (%, LPP): LPP preparation of the cationic lipid
From the text: Test of in vivo luciferase signal expression: female Balb/c mice (Beijing Vital River Laboratory Animal Technology Co., Ltd.) of 6-8 weeks of age were divided into 18 groups (M5-LNP, M5-LPP, SM102-LNP, SM102-LPP, ALC0315-LNP, ALC0315LPP, SW-II-121-LNP, SW-II-121-LPP, SW-II-122-LNP, SW-II-122-LPP, SW-II-134-3-LNP, SW-II-134-3-LPP, SW-II-138-2-LNP, SW-II-138-2-LPP, SW-II-139-2-LNP, SW-II-139-2-LPP, SW-II-140-2-LNP, and SW-II-140-2-LPP groups, with 3 mice per group). M5-LNP, M5-LPP, SM102-LNP, SM102-LPP, ALC0315-LNP, ALC0315LPP, SW-II-121-LNP, SW-II-121-LPP, SW-II-122-LNP, SW-II-122-LPP, SW-II-134-3-LNP, SW-II-134-3-LPP, SW-II-138-2-LNP, SW-II-138-2-LPP, SW-II-139-2-LNP, SW-II-139-2-LPP, SW-II-140-2-LNP, and SW-II-140-2-LPP solutions containing 10 μg of luciferase mRNA were administered by intramuscular injection (hind limbs of mice), respectively. 6 Hours after the administration, mice were injected intraperitoneally with 30 mg of a […] substrate. The bioluminescence was measured in a Xenogen IVIS-200 imaging system 15 minutes after substrate injection to evaluate the expression of the luciferase mRNA in the livers and injection sites (muscles) of the mice.

[2] = system: luciferase mRNA expression in livers and injection sites (muscles); assay: In vivo luciferase expression of LNP with M5, MC3, SW-II-121 (Example 11.1); parameters: species or system Balb/c mice; details: LNP preparation, DSPC, PEG-DMG, 50:10:38.5:1.5, 10 μg luciferase mRNA, 6 hours after intramuscular administration
Method: Test of in vivo luciferase signal expression: female Balb/c mice (Beijing Vital River Laboratory Animal Technology Co., Ltd.) of 6-8 weeks of age were divided into 3 groups (M5-LNP, MC3-LNP, and SW-II-121-LNP, with 3 mice per group). M5-LNP, MC3-LNP, and SW-II-121-LNP solutions containing 10 μg of luciferase mRNA were administered by intramuscular injection (hind limbs of mice), respectively. 6 Hours after the administration, mice were injected intraperitoneally with 30 mg of a […] substrate. The bioluminescence was measured in a Xenogen IVIS-200 imaging system 15 minutes after substrate injection to evaluate the expression of the luciferase mRNA in the livers and injection sites (muscles) of the mice.

SMILES	Liver/muscle (%, LNP) [1] [%]	Liver/muscle (%, LPP) [1] [%]	in vivo expression (luciferase, injection site and liver) [2]
CCCCCCCCC(CCCCCCCC)OC(=O)CCCCCCCN(CCO)CCCCCCCC(=O)OCCCCc1ccc(CCCCC)cc1 [SW-II-138-2]	8.2 ± 5.7	3.5 ± 0.2	
CCCCCCCCC(CCCCCCCC)OC(=O)CCCCCCCN(CCO)CCCCCCCC(=O)OCc1cccc(CCCCCC)c1 [SW-II-122]	11.9 ± 1.2	2.8 ± 0.8	
CCCCCCCCCOC(=O)CCCCCCCN(CCO)CCCCCCCC(=O)OC(CCCCCCCC)CCCCCCCC [Compound M5]	10.1 ± 7.5	2.8 ± 0.3	
CCCCCCCCC(CCCCCCCC)OC(=O)CCCCCCCN(CCO)CCCCCCCC(=O)OCCc1ccc(CCCCCCC)cc1 [SW-II-121]	77.8 ± 48.9	52.2 ± 38.9	significantly superior in vivo expression 6 hours after intramuscular administration to M5-LNP and MC3-LNP
CCCCCCCCCOC(=O)CCCCCCCN(CCO)CCCCCCCC(=O)OCCc1ccc(CCCC)c(CCCC)c1 [SW-II-134-3]	8.2 ± 2.9	1.5 ± 0.8	
CCCCCCCCC(CCCCCCCC)OC(=O)CCCCCCCN(CCO)CCCCCCCC(=O)OCCc1cccc(CCCC)c1 [SW-II-139-2]	75.1 ± 16.1	2.0 ± 1.0	
CCCCCCCCC(CCCCCC)C(=O)OCCCCCCN(CCCCO)CCCCCCOC(=O)C(CCCCCC)CCCCCCCC (stereo not shown) [ALC-0315, reference compound]	199.8 ± 35.8	173.2 ± 103.9	
CCCCCCCCCCCOC(=O)CCCCCN(CCO)CCCCCCCC(=O)OC(CCCCCCCC)CCCCCCCC [SM-102, reference compound]	6.2 ± 3.3	2.7 ± 0.6	
CCCCCCCCC(CCCCCCCC)OC(=O)CCCCCCCN(CCO)CCCCCCCC(=O)OCCc1ccccc1CCCC [SW-II-140-2]	7.4 ± 4.0	3.3 ± 1.5	
